Data as given in patent US20040044037A1, “Amidino-urea serotonin receptor ligands and compositions, their pharmaceutical uses, and methods for their snythesis” (priority 2003, published 2004).
pKi: −log10 of the molar value.

Columns and labels:
human 5HT2a receptors = biological target: T1, human 5HT2a receptors (Homo sapiens, UniProt P28223); assay: Competition radioligand binding, 5-HT2A; conditions: [3H]Ketanserin; membranes of CHO K1 cells; read-out: Ki 5-HT2A
T1 construct: expressed in transfected cells; host or cells: CHO K1 cells
T1 sequence (P28223 whole entry): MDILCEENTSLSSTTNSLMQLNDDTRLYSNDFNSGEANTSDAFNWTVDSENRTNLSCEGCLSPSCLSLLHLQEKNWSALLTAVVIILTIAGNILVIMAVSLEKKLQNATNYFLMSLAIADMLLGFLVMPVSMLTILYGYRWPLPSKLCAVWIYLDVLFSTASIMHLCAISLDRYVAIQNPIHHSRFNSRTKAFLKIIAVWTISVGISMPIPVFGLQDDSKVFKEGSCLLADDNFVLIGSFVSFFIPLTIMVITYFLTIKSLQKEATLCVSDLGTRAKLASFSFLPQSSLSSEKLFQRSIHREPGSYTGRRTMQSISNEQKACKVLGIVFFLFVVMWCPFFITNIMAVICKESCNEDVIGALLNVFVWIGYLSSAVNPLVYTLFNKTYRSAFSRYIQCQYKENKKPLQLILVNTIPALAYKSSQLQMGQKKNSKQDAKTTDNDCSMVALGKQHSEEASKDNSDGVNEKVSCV
Procedure: (§1) Cells and Membrane Preparation: HEK 293 cells stably expressing human 5-HT7B (h5-HT7b) receptors were grown in Dulbecco's Modified Eagle's Medium (DMEM; Gibco) without sodium pyruvate and containing 4.5 g/L glucose, L-glutamine/penicillin-streptomycin (Gemini), 10% fetal bovine serum and 250 mg/l of the antibiotic, G418 (Geneticin) as previously described (Jasper, J. R., Kosaka, A., To, Z. P., Chang, D. J. and Eglen, R. M. (1997) Cloning, expression and pharmacology of a truncated splice variant of the human 5-ht7 receptor (h5-ht7b). Br. J. Pharmacol. 122(1):126-132.). Cell pellets were homogenized in approximately 50 mL of homogenization buffer (buffer A) containing: 50 mM Tris (pH 7.4), 2 mM EGTA, 0.32 M sucrose, 10 μM PMSF, 1 μg/mL leupeptin, 5 μg/mL Pepstatin A, and 5 μg/mL aprotinin using an UltraTurax homogenizer (Tekmar Company, Cincinnati, Ohio) at 80% maximum setting three times for 10 sec. Cell pellets were centrifuged at 4° C. at 1,500×g for 10 min in a Beckman GS-6R centrifuge. Pellets were resuspended in buffer A, homogenized and centrifuged as described above. Pooled supernatants were transferred to centrifuge bottles and centrifuged at 4° C. at 20,000×g for 30 min in a Beckman J2-HS centrifuge. Cell pellets were resuspended in buffer A and were centrifuged at 4° C. at 20,000×g for 30 min. Cell pellets were resuspended in buffer A and stored at −70° C. in aliquots of 2.5 mg/mL total membrane protein. Total membrane protein was assessed utilizing a BCA kit (Pierce; Rockford, Ill.). Membranes containing human 5-HT1a or 5HT2a receptors expressed in CHO K1 cells were prepared as described above.
(§2) Radioligand Binding Assays: For 5-HT7 saturation binding experiments, HEK-293 cell membranes expressing h5-HT7 receptors (5-10 μg membrane protein/well) were incubated in duplicate with [^3H]5-CT (approximately 0.2 nM) in binding assay buffer containing: 50 mM HEPES (pH 7.4), 0.5 mM EDTA, 10 mM MgCl2, 10 μM pargyline to inhibit monoamine oxidase activity, and 0.1% sodium ascorbate, in a final volume of 200 μL in 96-well polypropylene plates for 2 hours at 37° C. Nonspecific binding was determined by incubating membranes with 1 μM 5-HT. All radioligand binding assays were stopped by rapid filtration onto 96-well GF/C filter plates (Packard) soaked in 0.1% polyethylenimine. Filters were washed three times with ice-cold phosphate-buffered saline (PBS) wash buffer containing 50 mM NaPO4 (pH 7.4), 0.9% NaCl, 2 mM MgCl2 and 0.02% NaN3. The filters were then counted using liquid scintillation in a Packard Topcount scintillation counter.
(§3) Data Analysis: Radioligand binding experiments were analyzed with Prism™ (Graphpad, San Diego, Calif.), a computer graphics and statistics program. IC50 values and Hill slopes for compounds were generated by nonlinear regression using Prism™. Values for Ki calculated from IC50 values by the Cheng and Prussoff equation (Cheng, Y. and Prusoff, W. H., (1973), “Relationship between the inhibition constant (Ki) and the concentration of inhibitor which causes 50 per cent inhibition (I50) of an enzymatic reaction.” Biochemical Pharmacol. 22:3099-3108).

[1] = biological target: T2, human 5-HT6 (h5-HT6) receptors (Homo sapiens, UniProt P50406); assay: Competition radioligand binding, h5-HT6; conditions: [3H]LSD; membranes of HEK-293 cells; read-out: Ki 5-HT6
T2 construct: purchased Receptor Biology, Inc. (Beltsville, Md.); host or cells: HEK-293 cells
T2 sequence (P50406 whole entry): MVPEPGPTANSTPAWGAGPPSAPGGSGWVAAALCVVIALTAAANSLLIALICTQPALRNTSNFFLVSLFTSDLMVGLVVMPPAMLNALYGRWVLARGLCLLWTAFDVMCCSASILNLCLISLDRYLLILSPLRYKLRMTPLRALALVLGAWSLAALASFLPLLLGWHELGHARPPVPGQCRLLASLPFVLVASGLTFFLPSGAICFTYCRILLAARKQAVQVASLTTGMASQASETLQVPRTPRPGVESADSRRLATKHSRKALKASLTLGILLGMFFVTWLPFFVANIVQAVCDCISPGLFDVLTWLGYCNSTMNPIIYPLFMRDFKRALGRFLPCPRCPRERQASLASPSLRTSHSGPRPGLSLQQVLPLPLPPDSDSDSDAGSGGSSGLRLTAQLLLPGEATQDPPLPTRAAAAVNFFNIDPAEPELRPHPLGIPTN

[2] = biological target: T3, human 5-HT7B (h5-HT7b) receptors (Homo sapiens, UniProt P34969); assay: Competition radioligand binding, h5-HT7b; conditions: [3H]5-CT; membranes of HEK 293 cells; read-out: Ki 5-HT7
T3 construct: expressed in transfected cells
T3 sequence (P34969 1-432 limits assumed): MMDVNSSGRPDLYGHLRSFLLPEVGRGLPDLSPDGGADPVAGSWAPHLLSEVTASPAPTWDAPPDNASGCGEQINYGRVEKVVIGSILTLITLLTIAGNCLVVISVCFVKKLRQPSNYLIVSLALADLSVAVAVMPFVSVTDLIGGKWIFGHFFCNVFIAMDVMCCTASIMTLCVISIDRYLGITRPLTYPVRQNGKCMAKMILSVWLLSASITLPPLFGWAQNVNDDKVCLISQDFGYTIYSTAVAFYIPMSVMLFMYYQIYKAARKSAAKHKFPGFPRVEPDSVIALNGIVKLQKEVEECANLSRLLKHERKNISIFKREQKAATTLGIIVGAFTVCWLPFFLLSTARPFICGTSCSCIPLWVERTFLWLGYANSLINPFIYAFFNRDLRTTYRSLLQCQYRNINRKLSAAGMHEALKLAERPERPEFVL
Description: The compounds of the invention interact with 5-HT receptors and show selectivity for 5-HT receptors. The 5-HT receptor binding properties of the compounds are identified by competitive radioligand binding assays wherein membranes prepared from transfected cells expressing the 5-HT receptor subtype of interest. “Binding constants” refers herein to Ki values measured by inhibition of the binding of radiolabelled ligands that are selective for the 5-HT receptor type being studied. For 5-HT7 receptors, Ki values are determined by measuring the inhibition of 5-carboxamidotryptamine (5-CT) binding, wherein 5-HT7 receptors were incubated with the radiolabelled high affinity ligand, 5-carboxamidotryptamine ([^3H]5-CT), in the presence and absence of the compounds of the invention, at varying concentrations. The compounds of the invention have high binding affinity for serotonin receptors as measured by dissociation constant Ki. […] “Selectivity” for receptor type, in the context of this invention, refers to the ratio of binding constants for the two receptor types being compared. […] The compounds of the present invention preferably show selectivity for 5-HT7 receptors over other serotonin receptor subtypes of greater than about 100. The compounds of the present invention also preferably show selectivity for 5-HT7 receptors over other receptor types, such as dopamine D2, of greater than about 100.
as §1
as §2, with “counter. […]” for “counter.”

[3] = biological target: T4, human D2S dopamine (hD2S-DA) receptors (Homo sapiens, UniProt P14416); assay: Competition radioligand binding, hD2S dopamine; conditions: [3H]Spiperone; membranes of A9 L cells; read-out: Ki D2
T4 construct: purchased Receptor Biology, Inc. (Beltsville, Md.); host or cells: A9 L cells
T4 sequence (P14416 1-414 isoform P14416-2): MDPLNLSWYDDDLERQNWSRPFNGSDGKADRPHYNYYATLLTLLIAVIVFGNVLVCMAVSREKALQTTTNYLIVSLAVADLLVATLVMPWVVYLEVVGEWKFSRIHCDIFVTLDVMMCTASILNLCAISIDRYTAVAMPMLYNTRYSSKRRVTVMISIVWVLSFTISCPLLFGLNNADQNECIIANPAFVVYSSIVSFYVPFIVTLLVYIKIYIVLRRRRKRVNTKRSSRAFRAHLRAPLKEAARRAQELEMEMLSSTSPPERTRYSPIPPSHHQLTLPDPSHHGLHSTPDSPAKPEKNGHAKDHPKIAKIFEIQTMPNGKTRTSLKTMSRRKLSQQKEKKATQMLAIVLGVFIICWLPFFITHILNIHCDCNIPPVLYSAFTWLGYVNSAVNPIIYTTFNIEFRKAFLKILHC

human 5-HT1a receptors = biological target: T5, human 5-HT1a receptors (Homo sapiens, UniProt P08908); assay: Competition radioligand binding, h5-HT1a; conditions: [3H]5-CT; membranes of CHO K1 cells; read-out: Ki 5-HT1A
T5 construct: expressed in transfected cells; host or cells: CHO K1 cells
T5 sequence (P08908 1-422): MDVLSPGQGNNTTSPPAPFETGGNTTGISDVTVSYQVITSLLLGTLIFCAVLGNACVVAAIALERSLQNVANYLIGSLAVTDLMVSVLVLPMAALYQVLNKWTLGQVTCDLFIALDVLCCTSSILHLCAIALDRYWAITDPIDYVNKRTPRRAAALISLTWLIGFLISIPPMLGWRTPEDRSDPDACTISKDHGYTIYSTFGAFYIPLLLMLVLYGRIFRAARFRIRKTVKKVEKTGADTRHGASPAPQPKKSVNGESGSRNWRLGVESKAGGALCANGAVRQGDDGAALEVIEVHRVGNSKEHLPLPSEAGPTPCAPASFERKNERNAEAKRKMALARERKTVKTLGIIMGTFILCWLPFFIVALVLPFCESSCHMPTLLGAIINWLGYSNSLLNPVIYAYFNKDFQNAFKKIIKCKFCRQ
Procedure: as §1, §2, §3

Row | SMILES | pKi (human 5HT2a receptors) | pKi [1] | pKi [2] | pKi [3] | pKi (human 5-HT1a receptors)
1 | CC(=O)Nc1ccc(NC(=O)NC(=N)NCc2cccc3ccccc23)cc1 [Example 1, N-(4-{[({Imino[(1-naphthylmethyl)amino]methyl}amino)carbonyl]amino}phenyl)acetamide] | 9.00 | 5.60 | 7.89 | 5.75 | 6.66
2 | CC(=O)NC(=N)NCc1cccc2ccccc12 [Example 3, N-Acetyl-N′-(1-naphthylmethyl)guanidine] | 8.10 | 5.57 | 7.00 | < 5.60 | 5.82
3 | N=C(NCc1cccc2ccccc12)NC(=O)N[C@H](CO)c1ccccc1 [Example 15, 1-({[[({[(1S)-2-Hydroxy-1-phenylethyl]amino}carbonyl)amino](imino)methyl]amino}methyl)naphthalene] | 9.40 | 6.77 | 8.59 | 6.54 | 
4 | N=C(NCc1cccc2ccccc12)NC(=O)NCc1cccnc1 [Example 18, 3-({[({Imino[(1-naphthylmethyl)amino]methyl}amino)carbonyl]amino}methyl)pyridine] | 9.37 | 6.46 | 7.77 | 5.99 | 
5 | N=C(NCc1cccc2ccccc12)NC(=O)N[C@H]1c2ccccc2C[C@H]1O [Example 42, 1-({[[({[(1S,2R)-2-Hydroxy-2,3-dihydro-1H-inden-1-yl]amino}carbonyl)amino](imino)methyl]amino}methyl)naphthalene] |  | 5.76 | 7.66 | 5.90 | 
6 | N=C(NCc1cccc2ccccc12)NC(=O)NCc1c(N)cccc1F [Example 44, 1-({[({[(2-Amino-6-fluorobenzyl)amino]carbonyl}amino)(imino)methyl]amino}methyl)naphthalene] |  | 6.30 | 7.48 | 6.05 | 
7 | N=C(NCc1cccc2ccccc12)NC(=O)NCCSCc1c(F)cccc1Cl [Example 47, 1-[10-(2-Chloro-6-fluorophenyl)-3-imino-5-oxo-9-thia-2,4,6-triazadec-1-yl]naphthalene] |  | 6.28 | 6.92 | 6.07 | 
8 | CC(C)(CO)CNC(=O)NC(=N)NCc1cccc2ccccc12 [Example 48, 1-({[({[(3-Hydroxy-2,2-dimethylpropyl)amino]carbonyl}amino)(imino)methyl]amino}methyl)naphthalene] |  | 5.58 | 8.01 | 5.77 | 
9 | COc1cc(CNC(=O)NC(=N)NCc2cccc3ccccc23)cc(OC)c1OC [Example 49, 1-({[Imino({[(3,4,5-trimethoxybenzyl)amino]carbonyl}amino)methyl]amino}methyl)naphthalene] |  | 5.95 | 7.52 | 6.08 | 
10 | N=C(NCc1cccc2ccccc12)NC(=O)NCC1CCN(Cc2cccc(C(F)(F)F)c2)CC1 [Example 57, 4-({[({Imino[(1-naphthylmethyl)amino]methyl}amino)carbonyl]amino}methyl)-1-[3-(trifluoromethyl)benzyl]piperidine] | 6.89 |  | 7.23 | 5.80 | 
11 | N#Cc1ccc(CN2CCC(CNC(=O)NC(=N)NCc3cccc4ccccc34)CC2)cc1 [Example 59, 1-(4-Cyanobenzyl)-4-({[({imino[(1-naphthylmethyl)amino]methyl}amino)carbonyl]amino}methyl)piperidine] | 8.59 |  | 7.07 | < 5.60 | 
12 | N=C(NCCc1ccccc1)NC(=O)N1CCN(Cc2ccccc2)CC1 [Example 61, N-[(4-Benzyl-1-piperazinyl)carbonyl]-N′-phenethylguanidine] | 5.74 |  | 6.31 | < 5.60 | 6.03
13 | Cc1cc(C)cc(CN2CCC(CNC(=O)NC(=N)NCc3cccc4ccccc34)CC2)c1 [Example 62, 1-(3,5-Dimethylbenzyl)4-({[({imino[(1-naphthylmethyl)amino]methyl}amino)carbonyl]amino}methyl)piperidine] | 8.01 |  | 7.66 | 6.31 | 
14 | N=C(NCc1cccc2ccccc12)NC(=O)NCC1CCN(Cc2noc(-c3ccccc3)n2)CC1 [Example 64, 4-({[({Imino[(1-naphthylmethyl)amino]methyl}amino)carbonyl]amino}methyl)-1-[(5-phenyl-1,2,4-oxadiazol-3-yl)methyl]piperidine] | 8.38 |  | 7.04 | < 5.60 | 
15 | N=C(NCc1cccc2ccccc12)NC(=O)NCC1CCN(Cc2cccc3ccccc23)CC1 [Example 69, 4-({[({Imino[(1-naphthylmethyl)amino]methyl}amino)carbonyl]amino}methyl)-1-(1-naphthylmethyl)piperidine] | 7.96 |  | 7.57 | 6.14 | 
16 | CCOc1ccccc1CNC(=N)NC(=O)NC [Example 84, 1-Ethoxy-2-{[(imino{[(methylamino)carbonyl]amino}methyl)amino]methyl}benzene] | 6.40 | 5.06 |  | < 5.60 | < 5.40
